From patent US20230233671A1, “RNA MOLECULES” (Pfizer Inc., priority 2021, published 2023)

What was measured:
Vero cells = assay: VZV gE expression and subcellular localization in Vero cells transfected with VZV RNA constructs (imaging); type: cell-based, African green monkeys; conditions: for VZV RNA (Vero cells) MFI: Table 7, VZV gE RNA, see Example 2
Procedure: Expression of VZV RNA constructs were tested in transfected Vero cells, a kidney epithelial cell culture line derived from African green monkeys. Seeded Vero cells were transfected for 24 hours at 37° C., 5% CO2 with 10 ng, 25 ng, or 50 ng of RNA constructs (Table 5) using MESSENGERMAX™ in accordance with the manufacturer's instructions. Cells were washed three times with PBS+Ca/Mg, and fixed in 4% paraformaldehyde (PFA) for 20 minutes at 25° C. Cells were washed twice with 3% bovine serum albumin (BSA) in PBS+Ca/Mg. Primary and secondary staining antibodies were diluted in 0.1% saponin in goat serum. Cells were stained with a 1:1000 dilution of primary antibody for 1 hour at 37° C., washed three times with PBS+Ca/Mg, and incubated with secondary antibody (1:500) and CELLMASK™ (1:140,000) for 45 minutes at 37° C. Cells were then stained with Dapi (1:15,000-1:20,000) for 15 minutes at 25° C., and washed three times with PBS+Ca/Mg. Cells were analyzed for VZV gE expression and subcellular localization using an Opera PHENIX® Plus High-Content Screening System at 10× or 63× magnification.

VZV gE = assay: Serum VZV gE-binding IgG levels (LUMINEX) in immunized Balb/c mice; type: in vivo; conditions: for Day 28 (GMC), serum gE-binding IgG: 0.5 μg IM Day 0, Day 28 (prime only); for Day 34 (GMC), serum gE-binding IgG: 0.5 μg IM Days 0 and 28, Day 34 (six days after boost); for Day 42 (GMC), serum gE-binding IgG: 0.5 μg IM Days 0 and 28, Day 42 (two weeks after booster)
Procedure: VZV RNA-LNP vaccines were tested for their ability to induce IgG and T cell responses in Balb/c mice. 15 mice per group were immunized in accordance with the schedule and specifications in Table 9. Briefly, 15 mice per group were immunized intramuscularly (IM) on Day 0 and boosted IM on Day 28. Mice immunized with SHINGRIX® received 1, 2.5, or 5 μg, corresponding to 1/50, 1/20, and 1/10 of the human clinical dose (50 μg), respectively; mice immunized with gE_WT CO1 received 0.5 or 1 μg; mice immunized with ms3 CO1 received 0.5 μg; mice immunized with ms4 CO1 received 0.5 μg; mice immunized with gE_WT CO2 received 0.5 μg; mice immunized with lyophilized gE_WT CO1 received 0.5 or 1 μg. Saline was administered on Days 0 and 28 to a negative control group. Serum was collected from mice on Days 28 and 42 for characterization of VZV gE-binding IgG levels (LUMINEX® analyses). Spleens were harvested, and sera collected, from five mice in each group on Day 35 for cellular analyses.
Serum IgG levels were determined for each mouse sample using the LUMINEX® platform. Briefly, diluted sera were incubated in the dark in the presence of blocked, recombinant gE protein-bound single-plex microspheres (MAGPLEX® Microspheres, region 79) for 20±4 hours at 2-8° C., 300 rpm. A secondary antibody solution (R-phycoerythrin Conjugated AffiniPure F(ab)′2 Fragment Goat Anti-Mouse IgG F(ab)′2 Fragment Specific) was prepared at 1:250 in LXA-16 buffer. Plates were washed three times in LXA-20 (EIA-7), and secondary antibody was applied to each well of the assay plate. Plates were covered with aluminum sealers and incubated for 2 hours±15 minutes at 25° C., 300 rpm. Plates were washed three times with LXA-20 (EIA-7) buffer, and 100 ul LXA-20 was applied to each well. Plates were covered with aluminum sealers and incubated at 25° C., 300 rpm for a minimum of 4 minutes, or up to 2 hours. Plates were analyzed on a BIO-PLEX® Reader. IgG titers for Day, 28, 34 and 42 are show in Table 10 and FIGS. 17-19.

[1] = system: human embryonic kidney (HEK) 293T cells; assay: In vitro expression (IVE) of VZV RNA-LNP vaccines in HEK 293T cells (FACS); type: cell-based; conditions: for VZV RNA-LNPs (293T cells) MFI: Table 7; for VZV RNA-LNPs (293T cells) EC50 (ng/well): Table 7, FIG. 14, input RNA vs percentage of gE-expressing cells, 24 hours
Procedure: In vitro expression (IVE) analyses were conducted to assess the potency of VZV RNA-LNP vaccines. RNA constructs were formulated into LNPs as previously described in Example 3, and a range of input VZV RNA-LNP quantities was transfected into human embryonic kidney (HEK) 293T cells for 24 hours at 37° C., 5% CO2. Transfected cells were washed with DPBS, detached from plate wells using ACCUTASE®, and rinsed with cold PBS. Cells were subjected to live/dead staining, fixation, and permeabilization prior to FACS staining. Fixed and permeabilized cells were incubated with an anti-gE primary antibody (1:1000) for 45 minutes at 2-8° C., washed twice with BD PERM/WASH™ buffer and incubated with a goat anti-human kappa-PE secondary antibody (1:1000) for 30 minutes at 2-8° C. Cells were washed twice with BD PERM/WASH™ buffer, resuspended in 1×FACS buffer, and analyzed on a BD LSRII to determine the proportion of cells expressing VZV gE for each VZV RNA-LNP input. A titration curve was created whereby input RNA quantities were plotted against the percentage of gE-expressing cells to determine the EC50 of each VZV RNA-LNP vaccine.

| Substance | VZV RNA (Vero cells) MFI (Vero cells) | Day 28 (GMC), serum gE-binding IgG (VZV gE) | Day 34 (GMC), serum gE-binding IgG (VZV gE) | Day 42 (GMC), serum gE-binding IgG (VZV gE) | VZV RNA-LNPs (293T cells) MFI [1] | VZV RNA-LNPs (293T cells) EC50 (ng/well) [1] | subcellular localization of VZV gE (Vero cells; Vero cells, 50 ng at 63× and 25 ng at 10× magnification) |
| --- | --- | --- | --- | --- | --- | --- | --- |
| ms3 CO1: modRNA construct, ORF SEQ ID NO: 149, VZV gE with deletion of aa 547-623, secreted | 497 | 3.98 | 29.5 | 370.11 | 663 | 231 ng/well |  |
| ms4 CO1: modRNA construct, ORF SEQ ID NO: 151, full length VZV gE with substitution Y582A | 981 | 3.55 | 112.7 | 598.57 | 1713 | 15 ng/well |  |
| ms8: RNA constructs encoding VZV gE with deletion of the acidic domain aa 588-602 (SEQ ID NO: 6) |  |  |  |  |  |  | preferentially within cellular membranes |
